# Test results reported in US20230201217A1 (priority 2019, published 2023).
# Experiments:
# CYP2C9 = CYP2C9 (Homo sapiens, UniProt P11712); details: recombinant enzyme
# Method: Control incubations were performed for each assay with appropriate positive inhibitory controls.
# [1] = target: T1, rat α3β4 nicotinic acetylcholine receptor (nAChR) (Rattus norvegicus, UniProt P04757+P12392); assay: cell-based
# T1 construct: expressed in transfected cells; host or cells: HEK 293 (ATCC CRL1573), transient, Lipofectamine 2000
# [2] = test system: polychromatic erythrocytes in mouse bone marrow; assay: Mouse bone marrow in vivo micronucleus assay
# Method: Treatment resulted and clinical signs of lethargy and piloerection at doses of 200-400 mg/kg and in mortality of male and female ICR mice at doses of 300 and 400 mg/kg. The highest non-lethal dose was 250 mg/kg.
# These doses were based upon prior toxicology data indicating higher doses were associated with mortality in this species. […] A positive control group received a single oral dose of 60 mg/kg cyclophosphamide on Day 2, the day prior to the scheduled euthanasia. Each group consisted of 6 males. Males only were used as no significant differences in response related to gender were expected based upon prior toxicology and toxicokinetic data. All animals were euthanized on Day 3, the day following the final dose and discarded following bone marrow collection.
# All animals were observed twice daily for mortality and moribundity. Bone marrow collection for micronucleus evaluation was performed for 5 of the 6 animals in each group at the scheduled euthanasia (Day 3). All animals were discarded without necropsy. Bone marrow smears were prepared, and the coded slides were counted for polychromatic, normochromatic, and micronucleated polychromatic erythrocytes following the final bone marrow sample collection on Day 3.
# Pharmacokinetics in rats = assay type: in vivo, rat; details: 60 mg/kg
# Method: 18-MC is rapidly absorbed and distributed into the brain and fat tissues in rats dosed with 40 mg/kg p.o. or i.p. The estimated volume of distribution is 8 L/kg. 18-MC levels in fat were 4.2 μM and 2.5 μM at 2 hours and 24 hours, respectively. […] On oral administration, it appears that the major metabolites are either M4 or M5, depending on the animal species tested. M4 and M5 are the primary circulating drug species because they are present at proportions greater than 18-MC. […] In the animal species tested its half-life is less than 2 hours at lower doses. At high doses a long elimination phase is evident (ranging from 9 to 20 hours in rats). 18-MC is highly protein bound (95-98%).
# cynomolgus monkeys = assay: 14-day nasogastric gavage GLP toxicity study in cynomolgus monkeys; assay type: in vivo, cynomolgus monkey; details: for Bone marrow, femur: Depletion, mixed; number with observation / Liver: Hypertrophy, hepatocellular, panlobular; number with observation / Thymus: Depletion, lymphoid, cortex; number with observation: 3 examined
# Excerpt: Assessments of neurobehavioral effects and general toxicity were based on mortality, functional observational battery (FOB) evaluations, clinical observations, body weight, and body temperature; ophthalmoscopic, electrocardiographic examinations; and anatomic and clinical pathology. The anatomical pathology evaluations included histopathology of a full list of tissues from all animals and a comprehensive evaluation of the central nervous system (including selected peripheral nerves) utilizing whole body perfusion and special stains. Bone marrow smears from all animals were evaluated microscopically. Complete differentials and myeloid-erythroid (ME) ratios were performed. Toxicokinetic assessment was conducted for the test article and metabolites.
# T1 sequence (P04757 26-499): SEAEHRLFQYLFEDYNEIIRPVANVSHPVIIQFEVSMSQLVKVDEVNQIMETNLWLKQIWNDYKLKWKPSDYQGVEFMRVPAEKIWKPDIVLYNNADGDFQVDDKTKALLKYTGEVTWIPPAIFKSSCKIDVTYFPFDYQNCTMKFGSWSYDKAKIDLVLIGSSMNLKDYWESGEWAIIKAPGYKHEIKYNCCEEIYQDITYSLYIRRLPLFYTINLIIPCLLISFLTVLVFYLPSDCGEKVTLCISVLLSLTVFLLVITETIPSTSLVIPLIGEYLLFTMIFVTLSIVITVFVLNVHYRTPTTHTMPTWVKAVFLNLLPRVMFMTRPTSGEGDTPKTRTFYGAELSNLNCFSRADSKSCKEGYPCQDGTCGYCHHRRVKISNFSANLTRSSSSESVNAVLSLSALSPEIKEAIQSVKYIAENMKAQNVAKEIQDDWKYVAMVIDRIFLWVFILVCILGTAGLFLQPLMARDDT
# T1 sequence (P12392 21-495): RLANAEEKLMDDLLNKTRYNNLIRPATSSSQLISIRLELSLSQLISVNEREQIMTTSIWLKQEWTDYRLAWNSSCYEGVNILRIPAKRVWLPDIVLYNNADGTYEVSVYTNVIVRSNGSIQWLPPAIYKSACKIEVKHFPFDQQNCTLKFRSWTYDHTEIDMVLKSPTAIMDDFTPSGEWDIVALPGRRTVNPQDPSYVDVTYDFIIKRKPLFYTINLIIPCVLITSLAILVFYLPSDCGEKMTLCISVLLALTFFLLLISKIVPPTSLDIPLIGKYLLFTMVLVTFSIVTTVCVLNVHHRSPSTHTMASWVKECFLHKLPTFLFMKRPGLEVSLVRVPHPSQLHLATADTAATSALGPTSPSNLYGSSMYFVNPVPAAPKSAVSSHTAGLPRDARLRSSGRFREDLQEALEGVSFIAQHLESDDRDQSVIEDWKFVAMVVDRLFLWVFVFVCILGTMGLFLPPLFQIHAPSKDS
# Sequence of CYP2C9 (P11712 whole entry): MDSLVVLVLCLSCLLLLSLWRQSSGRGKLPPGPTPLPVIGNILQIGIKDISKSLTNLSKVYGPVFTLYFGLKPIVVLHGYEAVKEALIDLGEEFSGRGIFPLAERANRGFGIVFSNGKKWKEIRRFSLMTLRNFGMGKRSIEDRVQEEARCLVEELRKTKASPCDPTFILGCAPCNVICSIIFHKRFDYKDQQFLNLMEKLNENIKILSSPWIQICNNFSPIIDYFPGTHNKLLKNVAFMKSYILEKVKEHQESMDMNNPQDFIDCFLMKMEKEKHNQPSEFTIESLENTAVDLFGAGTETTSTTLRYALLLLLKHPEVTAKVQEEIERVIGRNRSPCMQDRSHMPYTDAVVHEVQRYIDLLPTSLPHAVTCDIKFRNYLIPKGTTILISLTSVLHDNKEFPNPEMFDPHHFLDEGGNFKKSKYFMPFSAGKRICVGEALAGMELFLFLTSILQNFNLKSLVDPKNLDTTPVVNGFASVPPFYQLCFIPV
compound,measurement,setting,value
"COCCC1CC2CN3CCc4c([nH]c5ccccc45)C(C(=O)OC)(C2)C13.Cl (stereo not shown) [18-MC HCl, 18-Methoxycoronaridine hydrochloride]",IC50,CYP2C9,< 1500 nM
same,Max Inhibition 20-30 μM,[1],98 ± 1%
same,Persistent Inhibition at 1 sec,[1],88 ± 3%
same,lethality,"[2]; GLP, 120 mg/kg/day group, within 3 hours of dosing",Lethality was observed in a single animal
same,incidence of micro-nucleated polychromatic erythrocytes (MPCE),"[2]; non-GLP, 250 mg/kg and less",No significant increase
same,highest non-lethal dose,"[2]; non-GLP, single oral dose, suspension in PBS pH 7.4, ICR mice",250 mg/kg
same,oral bioavailability,Pharmacokinetics in rats,about 8%
same,HED of well tolerated dose,cynomolgus monkeys; 50 mg/kg/day,16 mg/kg/day
same,"Bone marrow, femur: Depletion, mixed, mild; number with observation",cynomolgus monkeys; 50 mg/kg/day F,0
same,"Bone marrow, femur: Depletion, mixed, minimal; number with observation",cynomolgus monkeys; 50 mg/kg/day F,0
same,"Bone marrow, femur: Depletion, mixed, moderate; number with observation",cynomolgus monkeys; 50 mg/kg/day F,0
same,"Bone marrow, rib: Depletion, mixed, mild; number with observation",cynomolgus monkeys; 50 mg/kg/day F,0
same,"Bone marrow, rib: Depletion, mixed, minimal; number with observation",cynomolgus monkeys; 50 mg/kg/day F,0
same,"Bone marrow, rib: Depletion, mixed, moderate; number with observation",cynomolgus monkeys; 50 mg/kg/day F,0
same,"Bone marrow, rib: Depletion, mixed; number with observation",cynomolgus monkeys; 50 mg/kg/day F,0
same,"Bone marrow, sternum: Depletion, mixed, mild; number with observation",cynomolgus monkeys; 50 mg/kg/day F,0
same,"Bone marrow, sternum: Depletion, mixed, minimal; number with observation",cynomolgus monkeys; 50 mg/kg/day F,0
same,"Bone marrow, sternum: Depletion, mixed, moderate; number with observation",cynomolgus monkeys; 50 mg/kg/day F,0
same,"Bone marrow, sternum: Depletion, mixed; number with observation",cynomolgus monkeys; 50 mg/kg/day F,0
same,"Liver: Hypertrophy, hepatocellular, panlobular, mild; number with observation",cynomolgus monkeys; 50 mg/kg/day F,3
same,"Liver: Hypertrophy, hepatocellular, panlobular, minimal; number with observation",cynomolgus monkeys; 50 mg/kg/day F,0
same,"Thymus: Depletion lymphoid, generalized, mild; number with observation",cynomolgus monkeys; 50 mg/kg/day F,1
same,"Thymus: Depletion lymphoid, generalized, moderate; number with observation",cynomolgus monkeys; 50 mg/kg/day F,0
same,"Thymus: Depletion lymphoid, generalized; number with observation",cynomolgus monkeys; 50 mg/kg/day F,1
same,"Thymus: Depletion, lymphoid, cortex, mild; number with observation",cynomolgus monkeys; 50 mg/kg/day F,0
same,"Thymus: Depletion, lymphoid, cortex, minimal; number with observation",cynomolgus monkeys; 50 mg/kg/day F,2
same,"Thymus: Depletion, lymphoid, cortex, moderate; number with observation",cynomolgus monkeys; 50 mg/kg/day F,0
same,mean cumulative body gain (Days 1-14),cynomolgus monkeys; 50 mg/kg/day F,-0.08 kg
same,"Bone marrow, femur: Depletion, mixed; number with observation",cynomolgus monkeys; 50 mg/kg/day F,0
same,"Liver: Hypertrophy, hepatocellular, panlobular; number with observation",cynomolgus monkeys; 50 mg/kg/day F,3
same,"Thymus: Depletion, lymphoid, cortex; number with observation",cynomolgus monkeys; 50 mg/kg/day F,2
same,"Bone marrow, femur: Depletion, mixed, mild; number with observation",cynomolgus monkeys; 50 mg/kg/day M,0
same,"Bone marrow, femur: Depletion, mixed, minimal; number with observation",cynomolgus monkeys; 50 mg/kg/day M,0
same,"Bone marrow, femur: Depletion, mixed, moderate; number with observation",cynomolgus monkeys; 50 mg/kg/day M,0
same,"Bone marrow, rib: Depletion, mixed, mild; number with observation",cynomolgus monkeys; 50 mg/kg/day M,0
same,"Bone marrow, rib: Depletion, mixed, minimal; number with observation",cynomolgus monkeys; 50 mg/kg/day M,0
same,"Bone marrow, rib: Depletion, mixed, moderate; number with observation",cynomolgus monkeys; 50 mg/kg/day M,0
same,"Bone marrow, rib: Depletion, mixed; number with observation",cynomolgus monkeys; 50 mg/kg/day M,0
same,"Bone marrow, sternum: Depletion, mixed, mild; number with observation",cynomolgus monkeys; 50 mg/kg/day M,0
same,"Bone marrow, sternum: Depletion, mixed, minimal; number with observation",cynomolgus monkeys; 50 mg/kg/day M,0
same,"Bone marrow, sternum: Depletion, mixed, moderate; number with observation",cynomolgus monkeys; 50 mg/kg/day M,0
same,"Bone marrow, sternum: Depletion, mixed; number with observation",cynomolgus monkeys; 50 mg/kg/day M,0
same,"Liver: Hypertrophy, hepatocellular, panlobular, mild; number with observation",cynomolgus monkeys; 50 mg/kg/day M,0
same,"Liver: Hypertrophy, hepatocellular, panlobular, minimal; number with observation",cynomolgus monkeys; 50 mg/kg/day M,0
same,"Thymus: Depletion lymphoid, generalized, mild; number with observation",cynomolgus monkeys; 50 mg/kg/day M,0
same,"Thymus: Depletion lymphoid, generalized, moderate; number with observation",cynomolgus monkeys; 50 mg/kg/day M,0
same,"Thymus: Depletion lymphoid, generalized; number with observation",cynomolgus monkeys; 50 mg/kg/day M,0
same,"Thymus: Depletion, lymphoid, cortex, mild; number with observation",cynomolgus monkeys; 50 mg/kg/day M,0
same,"Thymus: Depletion, lymphoid, cortex, minimal; number with observation",cynomolgus monkeys; 50 mg/kg/day M,2
same,"Thymus: Depletion, lymphoid, cortex, moderate; number with observation",cynomolgus monkeys; 50 mg/kg/day M,0
same,mean cumulative body gain (Days 1-14),cynomolgus monkeys; 50 mg/kg/day M,-0.22 kg
same,"Bone marrow, femur: Depletion, mixed; number with observation",cynomolgus monkeys; 50 mg/kg/day M,0
same,"Liver: Hypertrophy, hepatocellular, panlobular; number with observation",cynomolgus monkeys; 50 mg/kg/day M,0
same,"Thymus: Depletion, lymphoid, cortex; number with observation",cynomolgus monkeys; 50 mg/kg/day M,2
same,"Bone marrow, femur: Depletion, mixed, mild; number with observation",cynomolgus monkeys; 150 mg/kg/day F,0
same,"Bone marrow, femur: Depletion, mixed, minimal; number with observation",cynomolgus monkeys; 150 mg/kg/day F,0
same,"Bone marrow, femur: Depletion, mixed, moderate; number with observation",cynomolgus monkeys; 150 mg/kg/day F,0
same,"Bone marrow, rib: Depletion, mixed, mild; number with observation",cynomolgus monkeys; 150 mg/kg/day F,0
same,"Bone marrow, rib: Depletion, mixed, minimal; number with observation",cynomolgus monkeys; 150 mg/kg/day F,0
same,"Bone marrow, rib: Depletion, mixed, moderate; number with observation",cynomolgus monkeys; 150 mg/kg/day F,0
same,"Bone marrow, rib: Depletion, mixed; number with observation",cynomolgus monkeys; 150 mg/kg/day F,0
same,"Bone marrow, sternum: Depletion, mixed, mild; number with observation",cynomolgus monkeys; 150 mg/kg/day F,0
same,"Bone marrow, sternum: Depletion, mixed, minimal; number with observation",cynomolgus monkeys; 150 mg/kg/day F,0
same,"Bone marrow, sternum: Depletion, mixed, moderate; number with observation",cynomolgus monkeys; 150 mg/kg/day F,0
same,"Bone marrow, sternum: Depletion, mixed; number with observation",cynomolgus monkeys; 150 mg/kg/day F,0
same,"Liver: Hypertrophy, hepatocellular, panlobular, mild; number with observation",cynomolgus monkeys; 150 mg/kg/day F,2
same,"Liver: Hypertrophy, hepatocellular, panlobular, minimal; number with observation",cynomolgus monkeys; 150 mg/kg/day F,1
same,"Thymus: Depletion lymphoid, generalized, mild; number with observation",cynomolgus monkeys; 150 mg/kg/day F,0
same,"Thymus: Depletion lymphoid, generalized, moderate; number with observation",cynomolgus monkeys; 150 mg/kg/day F,0
same,"Thymus: Depletion lymphoid, generalized; number with observation",cynomolgus monkeys; 150 mg/kg/day F,0
same,"Thymus: Depletion, lymphoid, cortex, mild; number with observation",cynomolgus monkeys; 150 mg/kg/day F,2
same,"Thymus: Depletion, lymphoid, cortex, minimal; number with observation",cynomolgus monkeys; 150 mg/kg/day F,0
same,"Thymus: Depletion, lymphoid, cortex, moderate; number with observation",cynomolgus monkeys; 150 mg/kg/day F,1
same,mean cumulative body gain (Days 1-14),cynomolgus monkeys; 150 mg/kg/day F,-0.12 kg
same,"Bone marrow, femur: Depletion, mixed; number with observation",cynomolgus monkeys; 150 mg/kg/day F,0
same,"Liver: Hypertrophy, hepatocellular, panlobular; number with observation",cynomolgus monkeys; 150 mg/kg/day F,3
